Source: EP0852233A1, “CYCLOSPORIN PHOSPHATE DERIVATIVES AND MEDICINAL COMPOSITION” (NIPPON SHINYAKU COMPANY, LIMITED, priority 1995, dated 1997)
Converted amounts (≈) assume the structure as drawn.

Experiments:
[1] = tested on: IL-2 production of T cells (Jurkat cells); assay: IL-2 production inhibitory activity (Jurkat cells stimulated with concanavalin A; IL-2 determined by CTLL-2 bioassay/MTT); format: cell-based, human; conditions: 24 hours
Experimental: It is known that the immunosuppressant action of cyclosporins is based on inhibition of the IL-2 gene of T cells. Therefore, the biological activity of cyclosporins can be assayed using inhibition of the IL-2 production of T cells as an indicator. Accordingly, using Jurkat cells (a tumor cell line derived from human T cells), the biological activity of the compound of the invention was evaluated.
Jurkat cells grown to the logarithmic phase in RPMI-1640 medium (Flow Laboratories; 10% heat-inactivated FBS, 300 mg/l L-glutamine, 50 U/ml streptomycin, 50 U/ml penicillin, 25 mM Hepes, 50 µM 2-mercaptoethanol) were seeded onto a 96-well microtiter plate at a density of 8x10^5 cells/ml, 0.1 ml/well. Then, as an IL-2 production inducer, 10 µl of concanavalin A was added, followed by addition of 20 µl each of samples varying in concentration. After the final volume was adjusted to 0.2 ml/well with the medium, the plate was incubated in a CO2 incubator at 37°C for 24 hours. After completion of culture, the reaction mixture in each well was centrifuged (1000 rpm x 5 min.) and the supernatant was recovered.
Determination of IL-2 was carried out by the bioassay using CTLL-2 cells which are known as IL-2-dependent cells.
To 0.1 ml of CTLL-2 cells (40,000/ml) in logarithmic phase, 0.1 ml of an appropriate dilution of the above supernatant was added, and the cells were cultured in a CO2 incubator at 37°C for 48 hours. After completion of culture, the cell growth was determined by the MTT assay. The relation between growth of CTLL-2 cells and IL-2 concentration was previously plotted for a recombinant IL-2 and using the plots as a standard curve, the IL-2 concentration was estimated from the degree of growth of CTLL-2 cells.
The IL-2 production inhibition rate was calculated by means of the following equation (1) and the IC50 value of each sample was calculated from the inhibition rates at various concentrations. IL-2 production inhibition rate (%) = (1-(IL-2 production by cells in presence of sample)/(IL-2 production by cells in absence of sample)) x100 [formula]

[2] = rat, in vivo
Experimental: Nephrotoxicity was investigated by the lithium clearance method.
Each sample was adjusted to a concentration of 5 mg/ml and 2 ml/kg was administered intraperitonally for 7 consecutive days. The control group similarly received the solvent used for preparation of the sample solutions. […] On the following day the blood was drawn from the jugular vein and the animals were placed in metabolism cages. Under feeding with the lithium diet, the 24-hour urine was collected and the urine volume was measured using a measuring cylinder. After the rats were taken out from the metabolism cages, blood sampling was immediately carried out and the mean lithium value of two measurements before and after urine collection was taken as the blood lithium value of the corresponding rat. The body weight of rats was determined immediately after they were taken out from metabolism cages. To determine the blood lithium concentration, each blood sample was centrifuged at 3000 rpm for 10 minutes and the plasma was taken for determination. […] 24-hr CLi /100 g = urine volume x 100/rat body weight · urinary Li value/blood Li value [formula]

[3] = physchem; conditions: water
Experimental: From each test tube, 250 µl was taken into a centrifuge tube and centrifuged (10,000 rpm x 10 min.). The supernatant was recovered, diluted with distilled water, and subjected to HPLC for assay.
Column: Inertsil C8 (4.6x250 mm) Mobile phase: acetonitrile-methanol-distilled water-phosphoric acid (50:35:15:0.005) Column temperature: 75°C Detection: UV 210 nm

[4] = Absorption after oral administration and release of the phosphate group (blood concentration by HPLC); format: in vivo; conditions: SD rats, oral 30 mg/kg; for level at 0.5 h / level at 1 h / level at 2 h / level at 4 h / level at 8 h / level at 24 h: rat, blood, read-out: Blood concentration of the administered compound (unchanged)
Experimental: Each blood sample was centrifuged (10,000 rpm x 5 min.) and the supernatant was applied onto a pretreatment column (Sep-Pack C18 Vac, Waters). After the column was rinsed with distilled water and 40% methanol, elution was carried out in 10% steps from 50% methanol to 100% methanol and 50 µl of the eluate was injected into an HPLC. From the concentration value thus found, the blood concentration was calculated.

| IL-2 production inhibitory concentration (IC50 ng/ml) [1] | solubility thermodynamic at 30 min [3] | Sum of blood concentrations up to 24 hr, administered compound (unchanged) [4] | level at 0.5 h ([4]; 0.5 hr after administration) | level at 1 h ([4]; 1 hr after administration) | level at 2 h ([4]; 2 hr after administration) | level at 4 h ([4]; 4 hr after administration) | level at 8 h ([4]; 8 hr after administration) | level at 24 h ([4]; 24 hr after administration) | Compound | other results |
| --- | --- | --- | --- | --- | --- | --- | --- | --- | --- | --- |
| 12 ng/mL | 29.7 µg/mL (≈ 24.4 µM) | – | – | – | – | – | – | – | C/C=C/C[C@@H](C)[C@@H](O)[C@H]1C(=O)N[C@@H]([C@@H](C)O)C(=O)N(C)CC(=O)N(C)[C@@H](CC(C)C)C(=O)N[C@@H](C(C)C)C(=O)N(C)[C@@H](CC(C)C)C(=O)N[C@@H](C)C(=O)N[C@H](C)C(=O)N(C)[C@@H](CC(C)C)C(=O)N(C)[C@@H](CC(C)C)C(=O)N(C)[C@@H](C(C)C)C(=O)N1C [Cyclosporin C] | nephrotoxicity [2]: nephrotoxic |
| 6 ng/mL | 35.1 µg/mL (≈ 28.8 µM) | 8754 ng/mL | 895 ng/mL | 4320 ng/mL | 1920 ng/mL | 1020 ng/mL | 533 ng/mL | 69 ng/mL | C/C=C/C[C@@H](C)[C@@H](O)[C@H]1C(=O)N[C@@H](CC)C(=O)N(C)CC(=O)N(C)[C@@H](CC(C)C)C(=O)N[C@@H](C(C)C)C(=O)N(C)[C@@H](CC(C)C)C(=O)N[C@@H](C)C(=O)N[C@H](CO)C(=O)N(C)[C@@H](CC(C)C)C(=O)N(C)[C@@H](CC(C)C)C(=O)N(C)[C@@H](C(C)C)C(=O)N1C [[D-serine^8]cyclosporin A, reference compound] | – |
| – | – | 3053 ng/mL | 391 ng/mL | 813 ng/mL | 971 ng/mL | 536 ng/mL | 311 ng/mL | 31 ng/mL | C/C=C/C[C@@H](C)[C@@H](O)[C@H]1C(=O)N[C@@H](CC)C(=O)N(C)CC(=O)N(C)[C@@H](CC(C)C)C(=O)N[C@@H](C(C)C)C(=O)N(C)[C@@H](CC(C)C)C(=O)N[C@@H](C)C(=O)N[C@H](COP(=O)(O)O)C(=O)N(C)[C@@H](CC(C)C)C(=O)N(C)[C@@H](CC(C)C)C(=O)N(C)[C@@H](C(C)C)C(=O)N1C [[Phosphono-D-serine^8]cyclosporin A, [phosphono-D-serine^8]cyclosporin A] | Sum of blood concentrations up to 24 hr, Sum of (2) and (3) [4]: 13501 ng/mL; Sum of blood concentrations up to 24 hr, [D-serine^8]cyclosporin A which released phosphoric acid [4]: 10448 ng/mL; Blood concentration of [D-serine^8]cyclosporin A which released phosphoric acid ([4]; 0.5 hr after administration): 1413 ng/mL; Blood concentration, Sum of (2) and (3) (released plus unchanged compound) ([4]; 0.5 hr after administration): 1804 ng/mL; Blood concentration of [D-serine^8]cyclosporin A which released phosphoric acid ([4]; 1 hr after administration): 3115 ng/mL; Blood concentration, Sum of (2) and (3) (released plus unchanged compound) ([4]; 1 hr after administration): 3928 ng/mL; Blood concentration of [D-serine^8]cyclosporin A which released phosphoric acid ([4]; 2 hr after administration): 2516 ng/mL; Blood concentration, Sum of (2) and (3) (released plus unchanged compound) ([4]; 2 hr after administration): 3437 ng/mL; Blood concentration of [D-serine^8]cyclosporin A which released phosphoric acid ([4]; 4 hr after administration): 2391 ng/mL; Blood concentration, Sum of (2) and (3) (released plus unchanged compound) ([4]; 4 hr after administration): 2927 ng/mL; Blood concentration of [D-serine^8]cyclosporin A which released phosphoric acid ([4]; 8 hr after administration): 910 ng/mL; Blood concentration, Sum of (2) and (3) (released plus unchanged compound) ([4]; 8 hr after administration): 1221 ng/mL; Blood concentration of [D-serine^8]cyclosporin A which released phosphoric acid ([4]; 24 hr after administration): 103 ng/mL; Blood concentration, Sum of (2) and (3) (released plus unchanged compound) ([4]; 24 hr after administration): 134 ng/mL |
| 49 ng/mL | – | – | – | – | – | – | – | – | C/C=C/C[C@@H](C)[C@@H](O)[C@H]1C(=O)N[C@@H]([C@@H](C)OP(=O)(O)O)C(=O)N(C)CC(=O)N(C)[C@@H](CC(C)C)C(=O)N[C@@H](C(C)C)C(=O)N(C)[C@@H](CC(C)C)C(=O)N[C@@H](C)C(=O)N[C@H](C)C(=O)N(C)[C@@H](CC(C)C)C(=O)N(C)[C@@H](CC(C)C)C(=O)N(C)[C@@H](C(C)C)C(=O)N1C [[Phosphonothreonine^2]cyclosporin A, [phosphonothreonine^2]cyclosporin A] | – |
